Drawing on PubChem BioAssay (NCI), this text covers TGI and GI50 for 11 compounds.

Where “and” joins values, the source holds several entries; their conditions need not be identical. Equal values may be shown once.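 Exposure lasted 48 hours, with cells grown in 96-well plates and compounds tested at five concentrations. Abbreviation: GI50, concentration required for 50% inhibition of growth. TGI denotes the concentration required for complete inhibition of growth.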

Some test systems named below: OVCAR-5 ovarian; RPMI-8226 leukemia; MDA-MB-435; EKVX NSCLC; A549 NSCLC; SNB-75 CNS; ACHN renal; IGROV1 ovarian; SW-620 colon; UACC-62 melanoma; NCI-H522 lung; MALME-3M melanoma; MOLT-4 leukemia; MDA-N.
What all share (test): NCI-60 cell line screen, 48 h

`CC(O)[C@@]1(c2ccccc2)CC2(CCN(C)CC2)O[C@H]1C` (stereo not given in full): the TGI with OVCAR-5 ovarian, with RPMI-8226 leukemia, with MDA-MB-435, in the assay on EKVX NSCLC, with A549 NSCLC and with SNB-75 CNS was greater than 100 µM throughout. Moreover, the TGI in the assay with ACHN renal, in the assay with IGROV1 ovarian, in the assay on SW-620 colon, in the assay with UACC-62 melanoma, with NCI-H522 lung and with MALME-3M melanoma was greater than 100 µM in each case. For the same compound, the TGI in the assay with MOLT-4 leukemia was greater than 100 µM.

For the compound `CC(=O)OCC1OC(n2nc(Cc3ccccc3)c(=S)[nH]c2=S)C(OC(C)=O)C(OC(C)=O)C1OC(C)=O` (stereo not given), the TGI with OVCAR-5 ovarian is greater than 100 µM; with MDA-MB-435, 36.7 µM; in the assay on A549 NSCLC, greater than 100 µM; in the assay with SNB-75 CNS it was 39.8 µM; with ACHN renal, greater than 100 µM; in the assay on IGROV1 ovarian, 45.7 µM. The TGI in the assay on SW-620 colon was greater than 100 µM; in the assay on UACC-62 melanoma, 35.5 µM; in the assay with NCI-H522 lung, 47.5 µM; with MALME-3M melanoma, 83.9 µM; with MOLT-4 leukemia, greater than 100 µM.

In the case of `CNC(=O)NS(=O)(=O)c1ccc(C)cc1`, the TGI in the assay with MDA-N, with OVCAR-5 ovarian, with RPMI-8226 leukemia, with A549 NSCLC, in the assay on SNB-75 CNS and in the assay on ACHN renal was greater than 100 µM throughout. For the same compound, the TGI in the assay on IGROV1 ovarian, with SW-620 colon, with UACC-62 melanoma, in the assay with NCI-H522 lung, with MALME-3M melanoma and with MOLT-4 leukemia was greater than 100 µM each time.

For the compound `COC(=O)C1C=CCON2CCc3c(n(S(=O)(=O)c4ccccc4)c4ccccc34)C12` (stereo not given), the TGI is greater than 100 µM in the assay on OVCAR-5 ovarian; greater than 36 µM in the assay with RPMI-8226 leukemia; greater than 84.8 µM in the assay on EKVX NSCLC; greater than 100 µM with A549 NSCLC; greater than 100 µM with SNB-75 CNS; greater than 100 µM with ACHN renal. Also, the TGI was greater than 68.2 µM in the assay with IGROV1 ovarian; greater than 34.3 µM with SW-620 colon; greater than 62.5 µM with UACC-62 melanoma; greater than 62.5 µM with NCI-H522 lung; greater than 100 µM in the assay with MALME-3M melanoma; greater than 71 µM in the assay on MOLT-4 leukemia.

Turning to `O=C1c2ccccc2C(=O)c2c(NCCCN3CCOCC3)ccc(NCCCN3CCOCC3)c21`, the TGI with MDA-N was 13.6 µM; in the assay on OVCAR-5 ovarian, 38.5 µM; in the assay on RPMI-8226 leukemia, 42.8 µM; in the assay with EKVX NSCLC, 46.6 µM; in the assay with A549 NSCLC, 16.2 µM; in the assay on SNB-75 CNS, 10.7 µM. In addition, the TGI in the assay on ACHN renal came out at 19.5 µM; in the assay on IGROV1 ovarian, 29.4 µM; in the assay on SW-620 colon, 28.1 µM; in the assay on UACC-62 melanoma, 6.05 µM; in the assay with NCI-H522 lung it was 2.35 µM; in the assay on MALME-3M melanoma, 27.7 µM. Moreover, the TGI in the assay on MOLT-4 leukemia was found to be 19.8 µM.

Take `O=c1c2c(c1=O)-c1ccccc1CN2`: the TGI in the assay with OVCAR-5 ovarian, in the assay on RPMI-8226 leukemia, with EKVX NSCLC, with A549 NSCLC, in the assay on SNB-75 CNS and in the assay on ACHN renal was greater than 100 µM each time. Further, the TGI with IGROV1 ovarian, with SW-620 colon, with UACC-62 melanoma, in the assay with NCI-H522 lung, in the assay with MALME-3M melanoma and in the assay on MOLT-4 leukemia was greater than 100 µM each time.

As to `O=C1C=CC2(C=C1)C[C@H](NC(=O)OCc1ccccc1)C(=O)O2`, the TGI in the assay on MDA-N is 28.9 µM; in the assay on OVCAR-5 ovarian, 38.2 µM; with RPMI-8226 leukemia, 17.2 µM; in the assay with EKVX NSCLC it was 23.7 µM; in the assay with A549 NSCLC, greater than 78.5 µM; in the assay on SNB-75 CNS, 61.4 µM. The TGI with ACHN renal worked out at 29.5 µM; in the assay with IGROV1 ovarian, 38.1 µM; with SW-620 colon it was 18.2 µM; with UACC-62 melanoma it was 31.9 µM; in the assay on NCI-H522 lung, 8.53 µM; with MALME-3M melanoma, 26.6 µM. The same compound returned a TGI with MOLT-4 leukemia of 15.3 µM.

In the case of `CCOC(=O)C1(Br)S(=O)(=O)OCCOS1(=O)=O`, the TGI in the assay on OVCAR-5 ovarian, in the assay with RPMI-8226 leukemia, in the assay with EKVX NSCLC, with A549 NSCLC, with SNB-75 CNS and in the assay with ACHN renal was greater than 100 µM each time. In addition, the TGI in the assay on IGROV1 ovarian, with SW-620 colon, with UACC-62 melanoma, in the assay with NCI-H522 lung, in the assay with MALME-3M melanoma and in the assay on MOLT-4 leukemia was greater than 100 µM each time.

In the case of `COc1cc2c[n+](C)c3c4cc(OC)c(OC)cc4ccc3c2cc1OC`, the TGI with OVCAR-5 ovarian is greater than 100 µM; in the assay on RPMI-8226 leukemia it was greater than 100 µM; in the assay on MDA-MB-435 it was greater than 100 µM; with EKVX NSCLC it was greater than 100 µM; in the assay with A549 NSCLC, greater than 100 µM; in the assay on SNB-75 CNS, > 100 µM and 98.9 µM. Further, the TGI in the assay with ACHN renal was greater than 100 µM; in the assay with IGROV1 ovarian, 97.7 µM; with SW-620 colon, greater than 100 µM; with UACC-62 melanoma it was greater than 100 µM; in the assay with NCI-H522 lung, 42.2 µM; with MALME-3M melanoma it was greater than 100 µM. In the assay with MOLT-4 leukemia, the TGI was greater than 100 µM. The GI50 with SNB-75 CNS is > 100 µM and 31.6 µM; in the assay on MALME-3M melanoma, > 100 µM and 21.7 µM.

As for `CCCN(CCC)C1=Nc2ccccc2-n2cnnc2C1`, the TGI in the assay on OVCAR-5 ovarian, in the assay on RPMI-8226 leukemia, with EKVX NSCLC, in the assay with A549 NSCLC, with ACHN renal and with IGROV1 ovarian was greater than 100 µM throughout. Besides, the TGI with SW-620 colon, in the assay with UACC-62 melanoma, in the assay on NCI-H522 lung, in the assay with MALME-3M melanoma and with MOLT-4 leukemia was greater than 100 µM in each case.

Take `C=C1Cc2cc(OC)c(OC)c(OC)c2-c2ccc(SC)c(=O)cc21`: the TGI worked out at 12.6 µM in the assay with OVCAR-5 ovarian; 14.7 µM in the assay with RPMI-8226 leukemia; 18.8 µM in the assay on EKVX NSCLC; 19.5 µM in the assay on A549 NSCLC; 15.1 µM in the assay on SNB-75 CNS; 6.2 µM with ACHN renal. Besides, the TGI with IGROV1 ovarian was 7.66 µM; with SW-620 colon, 4 µM; in the assay on NCI-H522 lung it was less than 0.01 µM; in the assay with MALME-3M melanoma, 2.57 µM; with MOLT-4 leukemia it was 25.2 µM.
